Source: patent US20250249006A1, “TREATMENT” (Verona Pharma PLC, priority 2024, published 2025)

Legend:
Assay type in all cases: in vivo
[1] = tested on: patients aged 40-80 years with moderate to severe COPD; assay: Clinical studies, ensifentrine vs placebo: quality of life responders (SGRQ −4 units) in patients with low FEV1 response; settings: for Odds in favor of a response, SGRQ (−4 Unit) Responders / Ensifentrine vs. Placebo Odds Ratio, SGRQ (−4 Unit) Responders: logistic regression; for Odds in favor of a response, SGRQ (−4 Unit) Responders / Ensifentrine vs. Placebo Odds Ratio, SGRQ (−4 Unit) Responders / % SGRQ (−4 Unit) Responders / % responders, SGRQ (−4 Units) Responders / Ensifentrine v placebo Odds Ratio, SGRQ (−4 Units) Responders / Odds in favour of response, SGRQ (−4 Units) Responders: pooled mITT; for % SGRQ (−4 Unit) Responders / % responders, SGRQ (−4 Units) Responders: 3 mg BID nebuliser; for % responders, SGRQ (−4 Units) Responders / Ensifentrine v placebo Odds Ratio, SGRQ (−4 Units) Responders / Odds in favour of response, SGRQ (−4 Units) Responders: improvement in morning trough FEV1 less than 40 mL (table line prints <60 mL); for proportion of patients with a clinically important improvement in QoL: over 24 weeks
Procedure: (§1) Clinical studies were conducted to determine the efficacy of ensifentrine in treating COPD compared with placebo. Ensifentrine was administered by nebuliser at a dose of 3 mg twice daily (BID) for 24 weeks. The studies were multi-centre, randomized, double-blind, parallel-group, placebo-controlled trials.
(§2) The study population included patients aged 40-80 years with moderate to severe COPD (FEV1 30%-70% p.n., FEV1/forced vital capacity (FVC) ratio<0.7, with mMRC≥2). The randomization stratified (a) the use of stable background maintenance LAMA or LABA therapy use (approx. 50%. yes or no) and (b) cigarette smoking (current or former). Inhaled corticosteroid (ICS) maintenance therapy was permitted in up to 20% of patients under certain provisions.
(§3) The primary endpoint was change from baseline in average FEV1 area under the curve AUC0-12h post-dose at week 12. Also assessed were COPD symptoms and quality of life (QoL) in patients showing lower responses in terms of lung function, and in particular patients with: (i) improvement in average FEV1 AUC0-12h of less than 100 mL and (ii) improvement in morning trough FEV1 of less than 100 mL, less than 60 mL or less than 40 mL.
COPD symptoms were assessed using Evaluating Respiratory Symptoms (E-RS; EXACT-Respiratory Symptoms, The minimal clinically important difference (MCID) of the E-RS is a total score of −2 units. User Manual (Version 3.0), October 2014) and Transitional Dyspnea Index (TDI; Mahler et al, The MCID of the transition dyspnea index is a total score of one unit. COPD 2005, 2:99-103.) and QoL was assessed using the St. George's Respiratory Questionnaire (SGRQ; Jones, St. George's Respiratory Questionnaire: The MCID of the SGRQ is a total score of −4 units. COPD 2005, 2:75-79.).

[2] = tested on: patients aged 40-80 years with moderate to severe COPD; assay: Clinical studies, ensifentrine vs placebo: moderate/severe COPD exacerbations; settings: nominally statistically significant
Procedure: as §1, §2
COPD exacerbations were defined as worsening of 2 or more major symptoms (dyspnea, sputum volume, and sputum purulence) or worsening of any 1 major symptom together with any 1 of the following minor symptoms: sore throat, colds, fever without other cause, and increased cough or wheeze for at least 2 consecutive days. COPD exacerbations were considered to be of moderate severity if treatment with systemic corticosteroids and/or antibiotics was required and were considered to be severe if hospitalization was required.

[3] = tested on: patients aged 40-80 years with moderate to severe COPD; assay: Clinical studies, ensifentrine vs placebo: lung function (average FEV1 AUC0-12h)
Procedure: as §1, §2
as §3, with “mL. […]” for “mL.”
Average FEV1 AUC0-12h is defined as area under the curve over 12 hours of the FEV1, divided by 12 hours. […] Morning trough FEV1 is defined as the FEV1 assessed at 11.5 to 12 hours following the prior evening dose.

[4] = average FEV1 AUC0-12h <100 mL at Week 12, Week 12
[5] = average FEV1 AUC0-12h <100 mL at Week 12, Week 24
[6] = morning trough FEV1 <60 mL at Week 6, Week 6
[7] = morning trough FEV1 <60 mL at Week 12, Week 12
[8] = morning trough FEV1 <60 mL at Week 24, Week 24
[9] = morning trough FEV1 <100 mL at Week 6, Week 6
[10] = morning trough FEV1 <100 mL at Week 12, Week 12
[11] = morning trough FEV1 <100 mL at Week 24, Week 24

COc1cc2c(cc1OC)-c1c/c(=N\c3c(C)cc(C)cc3C)n(CCNC(N)=O)c(=O)n1CC2 [Ensifentrine, N-(2-{(2E)-9,10-dimethoxy-4-oxo-2-[(2,4,6-trimethylphenyl)imino]-6,7-dihydro-2H-pyrimido[6,1-a]isoquinolin-3(4H)-yl}ethyl)urea] was tested, and the “Odds in favor of a response, SGRQ (−4 Unit) Responders” value (“Odds in favor of a response, SGRQ” below) ([1]; average FEV1 AUC0-12h <100 mL at Week 12, Week 6) was 1.10, the “Ensifentrine vs. Placebo Odds Ratio, SGRQ (−4 Unit) Responders” value (shortened to “Ensifentrine vs. Placebo Odds Ratio”) [1, 4] was 1.31 and the “Odds in favor of a response, SGRQ” value [1, 4] was 0.92. The “Ensifentrine vs. Placebo Odds Ratio” value [1, 5] was 1.04, the “Odds in favor of a response, SGRQ” value [1, 5] was 0.95 and the “% SGRQ (−4 Unit) Responders” value ([1]; average FEV1 AUC0-12h <100 mL at Week 12, responders at Week 6) was 45.4%. The “% SGRQ (−4 Unit) Responders” value ([1]; average FEV1 AUC0-12h <100 mL at Week 12, responders at Week 12) was 45.4%, the “% SGRQ (−4 Unit) Responders” value ([1]; average FEV1 AUC0-12h <100 mL at Week 12, responders at Week 24) was 48.5% and the “% responders, SGRQ (−4 Units) Responders” value ([1]; Week 6) was 42.6%. For the same compound, the “Ensifentrine v placebo Odds Ratio, SGRQ (−4 Units) Responders” value (shortened to “Ensifentrine v placebo Odds Ratio, SGRQ”) ([1]; Week 6) was 1.260, the “Odds in favour of response, SGRQ (−4 Units) Responders” value (“Odds in favour of response, SGRQ” for short) ([1]; Week 6) was 0.903 and the “% responders, SGRQ (−4 Units) Responders” value ([1]; Week 12) was 44.7%. For the same compound, the “Ensifentrine v placebo Odds Ratio, SGRQ” value ([1]; Week 12) was 1.316, the “Odds in favour of response, SGRQ” value ([1]; Week 12) was 0.802 and the “% responders, SGRQ (−4 Units) Responders” value ([1]; Week 24) was 48.7%. The “Ensifentrine v placebo Odds Ratio, SGRQ” value ([1]; Week 24) was 1.138, the “Odds in favour of response, SGRQ” value ([1]; Week 24) was 0.797 and the “proportion of patients with a clinically important improvement in QoL” value ([1]; increase in average FEV1 AUC0-12h less than 100 mL at Week 12) was “half”. The “proportion of patients with a clinically important improvement in QoL” value ([1]; increase in morning trough FEV1 less than 100 mL at Week 12) was “half”, the “Ensifentrine vs. Placebo Odds Ratio” value [1, 6] was 1.25 and the “Odds in favor of a response, SGRQ” value [1, 6] was 0.98. For the same compound, the “% SGRQ (−4 Unit) Responders” value ([1]; morning trough FEV1 <60 mL at Week 6, responders at Week 6) was 43.4%, the “Ensifentrine vs. Placebo Odds Ratio” value [1, 7] was 1.28 and the “Odds in favor of a response, SGRQ” value [1, 7] was 0.82. For the same compound, the “% SGRQ (−4 Unit) Responders” value ([1]; morning trough FEV1 <60 mL at Week 12, responders at Week 12) was 45.1%, the “Ensifentrine vs. Placebo Odds Ratio” value [1, 8] was 1.07 and the “Odds in favor of a response, SGRQ” value [1, 8] was 0.79. The “% SGRQ (−4 Unit) Responders” value ([1]; morning trough FEV1 <60 mL at Week 24, responders at Week 24) was 48.2%, the “Ensifentrine vs. Placebo Odds Ratio” value [1, 9] was 1.29 and the “Odds in favor of a response, SGRQ” value [1, 9] was 1.09. The “% SGRQ (−4 Unit) Responders” value ([1]; morning trough FEV1 <100 mL at Week 6, responders at Week 6) was 45.0%, the “Ensifentrine vs. Placebo Odds Ratio” value [1, 10] was 1.34 and the “Odds in favor of a response, SGRQ” value [1, 10] was 0.80. The “% SGRQ (−4 Unit) Responders” value ([1]; morning trough FEV1 <100 mL at Week 12, responders at Week 12) was 46.3%, the “Ensifentrine vs. Placebo Odds Ratio” value [1, 11] was 1.03 and the “Odds in favor of a response, SGRQ” value [1, 11] was 0.77. The “% SGRQ (−4 Unit) Responders” value ([1]; morning trough FEV1 <100 mL at Week 24, responders at Week 24) was 48.1%, the “reduction in moderate/severe exacerbation rate and risk (time to first event) vs placebo” value ([2]; patients with improvement in average FEV1 AUC0-12h less than 100 mL) was 37% and the “reduction in moderate/severe exacerbation rate and risk (time to first event) vs placebo” value ([2]; patients with improvement in morning trough FEV1 less than 100 mL) was “approximately 40%”. For the same compound, the “primary endpoint of average FEV1 (AUC)0-12h” value ([3]; Week 12, 3 mg BID nebuliser vs placebo) was “met” and the “improvement in lung function” value ([3]; all subgroups) was “statistically significant”.
